Test results reported in publication PMC6499206, “Quantification of Volatile Metabolites Derived From Garlic (Allium sativum) in Human Urine” (Frontiers in Nutrition, 2019).

Test: Quantification of garlic-derived metabolites in human urine after ingestion of 3 g raw garlic (SIDA, SAFE, HRGC-MS / HRGC-GC-MS)
Format: in vivo
Settings: human urine; also refs 5, 16
Source text: Human urine samples were obtained from 18 volunteers (age 22–38 years, mean 27 years; 11 females, 7 males); thereby, one volunteer conducted the whole experimental series twice. At the time of examination, volunteers reported no known illness that might have potentially influenced the metabolism or the excretion of urine. The test persons were instructed to avoid foods that were rich in sulfur-containing substances at the testing day as well as 2 days preceding the testing day, namely garlic, onion, wild garlic, chives, cabbage, and leek, and were only allowed to consume the garlic sample provided in the course of the experiments. Additionally, subjects were asked to keep records of the food (including food supplements) and beverages they consumed during these 3 testing days. Generally, the overall panelists' requirements were in accordance with our previous studies ([5], [16]).
On the sampling day, the outer garlic cloves of a whole garlic bulb were peeled and cut into ~3 mm cubes by using a garlic cutter (Genius GmbH, Limburg/Lahn, Germany). Subsequently these cubes were thoroughly mixed and aliquoted into 3 g portions. Three to four test persons conducted the experiment at the same day. Each test person was asked to ingest a garlic portion of 3 g. In total, eight consecutive urine samples were provided by each test person, comprising one whole urine set. The samples were collected in sterile brown glass bottles, with sampling times as follows: one sample was provided directly prior to garlic consumption. The series of the second to eighth sample was then obtained at about 0.5, 1, 2, 4, 6, 8, and 24 h after garlic consumption, respectively. Between the first urine sample (prior to garlic consumption) and the seventh urine sample (8 h after garlic consumption) test persons only spent urine at the specific time points mentioned before. Another sample was provided at the next morning (24 h after garlic consumption). Between the samples provided 8 and 24 h after garlic consumption no urine was collected. All samples were immediately placed into a −80°C freezer and were kept frozen until further analysis.
The samples of each set were termed according to their sampling time. The following list provides the time intervals that are related to the respective sample name: • - pre: before garlic consumption • - 0.5 h post: 0.4–0.8 h after garlic consumption • - 1 h post: 0.9–1.3 h after garlic consumption • - 2 h post: 1.8 h−2.2 h after garlic consumption • - 4 h post: 3.8–4.4 h after garlic consumption • - 6 h post: 5.8–6.4 h after garlic consumption • - 8 h post: 7.8–8.4 h after garlic consumption • - 24 h post: 23.8–25.6 h after garlic consumption
A creatinine kit (Labor+Technik Eberhard Lehmann GmbH, Berlin, Germany) was used to determine the creatinine content in each urine sample. The determination principle of this kit is based on the reaction of creatinine with picric acid under basic conditions (Jaffé reaction). The formed complex was detected photometrically at a wavelength of 492 nm.
For quantification purposes, the deuterated standards ^2H3-AMS, ^2H3-AMSO, and ^2H3-AMSO2 were added to the sample and stirred for 10 min. Subsequently, DCM was added in a ratio of 1:2 (DCM/human urine; v/v) and this solution was stirred for further 30 min at room temperature. To isolate the volatile fraction from the urine samples we then applied SAFE-distillation ([17]), thereby distilling the respective samples at 50°C. After completion of the distillation process, 10 mL of DCM were applied in each case to rinse the SAFE apparatus and to ensure complete transition of the volatile compounds. This process was repeated with another 10 mL of DCM. After thawing, the obtained aqueous distillate phase was extracted three times with 25 mL DCM. The organic phases were combined, dried over anhydrous Na2SO4 and concentrated to a total volume of 100 μL by means of Vigreux distillation and subsequent micro-distillation at 50°C. […]

## C=CCS(=O)(=O)CC=C [diallyl sulfone]
  presence as metabolite in human urine after garlic consumption: exclude the presence
